Data as given in patent US12077503B2, “Substituted cyclic amides and their use as herbicides” (FMC CORPORATION, priority 2015, dated 2024).

Experiments:
Format in all cases: in vivo
[1] = test system: Kochia (Kochia scoparia); assay: Test A preemergence; conditions: for Kochia plant response rating: 500 g ai/ha, preemergence
From the text: (§1) Seeds of plant species selected from barnyardgrass (Echinochloa crus-galli), Kochia (Kochia scoparia), ragweed (common ragweed, Ambrosia elatior), ryegrass, Italian (Italian ryegrass, Lolium multiflorum), crabgrass, large (Digitaria sanguinalis), giant foxtail (Setaria faberii), green foxtail (Setaria viridis), morningglory (Ipomoea spp.), pigweed (Amaranthus retroflexus), velvetleaf (Abutilon theophrasti), wheat (Triticum aestivum), and corn (Zea mays) were planted into a blend of loam soil and sand and treated preemergence with a directed soil spray using test chemicals formulated in anon-phytotoxic solvent mixture which included a surfactant.
(§2) At the same time, plants selected from these crop and weed species and also blackgrass (Alopecurus myosuroides), and Galium (catchweed bedstraw, Galium aparine) were planted in pots containing the same blend of loam soil and sand and treated with postemergence applications of test chemicals formulated in the same manner. Plants ranged in height from 2 to 10 cm and were in the one- to two-leaf stage for the postemergence treatment. Treated plants and untreated controls were maintained in a greenhouse for approximately 10 d, after which time all treated plants were compared to untreated controls and visually evaluated for injury. Plant response ratings, summarized in Table A, are based on a 0 to 100 scale where 0 is no effect and 100 is complete control. A dash (-) response means no test result.

[2] = test system: barnyardgrass (Echinochloa crus-galli); assay: Test A preemergence; conditions: for Barnyardgrass plant response rating: 500 g ai/ha, preemergence
From the text: as §1, §2

[3] = test system: giant foxtail (Setaria faberii); assay: Test A preemergence; conditions: for Foxtail, Giant plant response rating: 500 g ai/ha, preemergence
From the text: as §1, §2

[4] = test system: pigweed (Amaranthus retroflexus); assay: Test A preemergence; conditions: for Pigweed plant response rating: 500 g ai/ha, preemergence
From the text: as §1, §2

[5] = test system: ragweed (common ragweed, Ambrosia elatior); assay: Test A preemergence; conditions: for Ragweed plant response rating: 500 g ai/ha, preemergence
From the text: as §1, §2

[6] = test system: ryegrass, Italian (Italian ryegrass, Lolium multiflorum); assay: Test A preemergence
From the text: as §1, §2

[7] = test system: Galium (catchweed bedstraw, Galium aparine); assay: Test A postemergence; conditions: Postemergence
From the text: as §1, §2

[8] = test system: Kochia (Kochia scoparia); assay: Test A postemergence; conditions: Postemergence
From the text: as §1, §2

[9] = test system: barnyardgrass (Echinochloa crus-galli); assay: Test A postemergence; conditions: 125 g ai/ha, Postemergence; visual injury after approximately 10 d; 0 to 100 scale where 0 is no effect and 100 is complete control
From the text: as §1, §2

[10] = test system: blackgrass (Alopecurus myosuroides); assay: Test A postemergence; conditions: Postemergence
From the text: as §1, §2

[11] = test system: corn (Zea mays); assay: Test A postemergence; conditions: Postemergence
From the text: as §1, §2

[12] = test system: giant foxtail (Setaria faberii); assay: Test A postemergence; conditions: Postemergence
From the text: as §1, §2

[13] = test system: pigweed (Amaranthus retroflexus); assay: Test A postemergence; conditions: Postemergence
From the text: as §1, §2

[14] = test system: ragweed (common ragweed, Ambrosia elatior); assay: Test A postemergence; conditions: Postemergence
From the text: as §1, §2

[15] = test system: ryegrass, Italian (Italian ryegrass, Lolium multiflorum); assay: Test A postemergence; conditions: Postemergence
From the text: as §1, §2

[16] = test system: wheat (Triticum aestivum); assay: Test A postemergence; conditions: Postemergence
From the text: as §1, §2

[17] = test system: barnyardgrass (Echinochloa crus-galli); assay: Test B flooded paddy test; conditions: Flood, 250 g ai/ha
Method: (§3) Plant species in the flooded paddy test selected from rice (Oryra sativa), sedge, umbrella (small-flower umbrella sedge, Cyperus difformis), ducksalad (Heteranthera limosa), and barnyardgrass (Echinochloa crus-galli) were grown to the 2-leaf stage for testing. At time of treatment, test pots were flooded to 3 cm above the soil surface, treated by application of test compounds directly to the paddy water, and then maintained at that water depth for the duration of the test. Treated plants and controls were maintained in a greenhouse for 13 to 15 d, after which time all species were compared to controls and visually evaluated. Plant response ratings, summarized in Table B, are based on a scale of 0 to 100 where 0 is no effect and 100 is complete control. A dash (-) response means no test result.

[18] = test system: ducksalad (Heteranthera limosa); assay: Test B flooded paddy test; conditions: Flood, 250 g ai/ha
Method: as §3

[19] = test system: rice (Oryra sativa); assay: Test B flooded paddy test; conditions: Flood, 250 g ai/ha
Method: as §3

[20] = test system: sedge, umbrella (small-flower umbrella sedge, Cyperus difformis); assay: Test B flooded paddy test; conditions: 250 g ai/ha, Flood
Method: as §3

[21] = 125 g ai/ha, Preemergence, visual injury rating after approximately 10 d
[22] = visual injury rating about 10 d after treatment, 0 to 100 scale (0 no effect, 100 complete control)
[23] = 125 g ai/ha, visual injury after approximately 10 d, 0 to 100 scale where 0 is no effect and 100 is complete control
[24] = scale of 0 to 100 where 0 is no effect and 100 is complete control
[25] = 0 to 100 scale where 0 is no effect and 100 is complete control
[26] = Preemergence, 125 g ai/ha, 0 to 100 scale (0 no effect, 100 complete control)
[27] = 125 g ai/ha, visual rating about 10 d after treatment
[28] = 500 g ai/ha, visual injury, 0 to 100 scale (0 no effect, 100 complete control), approx. 10 d

`Cc1c(F)cccc1NC(=O)[C@H]1C(=O)NC[C@@H]1c1ccc2c(c1)OCO2` (stereo in doubt) [Compound 989] was tested, and the “Kochia plant response rating (0 to 100 scale, 0 is no effect, 100 is complete control)” value [1, 21] was 0, the “Kochia plant response rating” value [1, 22] was 90 and the “Barnyardgrass plant response rating (0 to 100 scale, 0 is no effect, 100 is complete control)” value [2, 21] was 70. For the same compound, the “Barnyardgrass plant response rating” value [2, 22] was 90, the “Foxtail, Giant plant response rating (0 to 100 scale, 0 is no effect, 100 is complete control)” value [3, 21] was 70 and the “Foxtail, Giant plant response rating” value [3, 22] was 90. For the same compound, the “Pigweed plant response rating (0 to 100 scale, 0 is no effect, 100 is complete control)” value [4, 21] was 0, the “Pigweed plant response rating” value [4, 22] was 0 and the “Ragweed plant response rating (0 to 100 scale, 0 is no effect, 100 is complete control)” value [5, 21] was 0. The “Ragweed plant response rating” value [5, 22] was 40, the “Ryegrass, Italian plant response rating (0 to 100 scale, 0 is no effect, 100 is complete control)” value [6, 21] was 0 and the “Ryegrass, Italian plant response rating” value ([6]; 500 g ai/ha, preemergence, visual injury rating about 10 d after treatment, 0 to 100 scale (0 no effect, 100 complete control)) was 0. The “Plant response rating, Galium” value [7, 23] was 20, the “Plant response rating, Kochia” value [8, 23] was 0 and the “Plant response rating, Barnyardgrass” value [9] was 80. For the same compound, the “Plant response rating, Blackgrass” value [10, 23] was 0, the “Plant response rating, Corn” value [11, 23] was 0 and the “Plant response rating, Foxtail, Giant” value [12, 23] was 50. The “Plant response rating, Pigweed” value [13, 23] was 0, the “Plant response rating, Ragweed” value [14, 23] was 0 and the “Plant response rating, Ryegrass, Italian” value [15, 23] was 0. For the same compound, the “Plant response rating, Wheat” value [16, 23] was 0, the “Barnyardgrass plant response rating” value [17, 24] was 15 and the “Ducksalad plant response rating” value [18, 24] was 100. For the same compound, the “Rice plant response rating” value [19, 24] was 0 and the “Sedge, Umbrella plant response rating” value [20, 25] was 0.
For `Cc1cc([C@H]2CN(C)C(=O)[C@@H]2C(=O)Nc2ccccc2[S+](C)[O-])ccc1F` (some centres unmarked) [Compound 1314], the “Kochia plant response rating” value [1, 25] was 80, the “Plant response rating, Kochia” value [1, 26] was 80 and the “Barnyardgrass plant response rating” value [2, 25] was 100. For the same compound, the “Plant response rating, Barnyardgrass” value [2, 26] was 100, the “Foxtail, Giant plant response rating” value [3, 25] was 100 and the “Plant response rating, Foxtail, Giant” value [3, 26] was 90. For the same compound, the “Pigweed plant response rating” value [4, 25] was 70, the “Plant response rating, Pigweed” value [4, 26] was 0 and the “Ragweed plant response rating” value [5, 25] was 100. For the same compound, the “Plant response rating, Ragweed” value [5, 26] was 80, the “Plant response rating, Ryegrass, Italian” value [6, 26] was 20 and the “Galium plant response rating (0 to 100 scale)” value [7, 27] was 30. The “Plant response rating, Galium” value [7, 28] was 50, the “Kochia plant response rating (0 to 100 scale)” value [8, 27] was 50 and the “Plant response rating, Kochia” value [8, 28] was 60. The “Blackgrass plant response rating (0 to 100 scale)” value [10, 27] was 0, the “Plant response rating, Blackgrass” value [10, 28] was 60 and the “Corn plant response rating (0 to 100 scale)” value [11, 27] was 30. The “Plant response rating, Corn” value [11, 28] was 70, the “Foxtail, Giant plant response rating (0 to 100 scale)” value [12, 27] was 90 and the “Plant response rating, Foxtail, Giant” value [12, 28] was 90. The “Pigweed plant response rating (0 to 100 scale)” value [13, 27] was 0, the “Plant response rating, Pigweed” value [13, 28] was 30 and the “Ragweed plant response rating (0 to 100 scale)” value [14, 27] was 0. For the same compound, the “Plant response rating, Ragweed” value [14, 28] was 50, the “Ryegrass, Italian plant response rating (0 to 100 scale)” value [15, 27] was 0 and the “Plant response rating, Ryegrass, Italian” value [15, 28] was 0. For the same compound, the “Wheat plant response rating (0 to 100 scale)” value [16, 27] was 20, the “Plant response rating, Wheat” value [16, 28] was 60 and the “Barnyardgrass plant response rating” value [17, 25] was 65. For the same compound, the “Ducksalad plant response rating” value [18, 25] was 100, the “Rice plant response rating” value [19, 25] was 0 and the “Plant response rating, Sedge, Umbrella (0 to 100 scale where 0 is no effect and 100 is complete control)” value ([20]; visually evaluated after 13 to 15 d) was 0.
